From patent publication US7935507B2, “Method for testing substances on biomatrices” (Humanautocell GmbH, priority 2004, dated 2011)

Tested on: CYP2E1
Conditions: tissue equivalent strips (hepatocytes + Langerhan's islet cells on matrix) in William's medium E, 37° C.; benzene 0.005, 0.01, 0.02, 0.05 and 0.1 mM, several hours; compared with basic activity before addition
Experimental: The strips are placed in approximately 1 liter of William's medium E, which is agitated. Adequate gas exchange is ensured, and the temperature of the medium is maintained at 37° C.
After the system has equilibrated, a first strip of tissue equivalent is removed and the CYP2E1 activity thereon is determined via the EFCOD test method. Using the said method, the CYP2E1mediated O-dealkylation of 7-ethoxy-4-trifluoromethylcoumarin to 7-hydroxy-4-trifluoromethylcoumarin is determined.
The benzene is allowed to act for several hours, while maintaining the medium in agitation and ensuring the gas exchange. Then the CYP2E1 activity is determined once again in the way described in the foregoing.

**Q.** How did the “CYP2E1 activity (O-dealkylation of 7-ethoxy-4-trifluoromethylcoumarin to 7-hydroxy-4-trifluoromethylcoumarin)” value turn out when `c1ccccc1` [benzene] was run?
**A.** distinct increase of the basic activity with increasing benzene concentration
